# In patent publication US10246483B2, “Bile acid analogs as FXR/TGR5 agonists and methods of use thereof” (ENANTA PHARMACEUTICALS, INC., priority 2015, dated 2019):
# Biological target: T1, human FXR (NR1H4) (Homo sapiens, UniProt Q96RI1)
# T1 construct: host or cells: CHO (Chinese hamster ovary) reporter cells
# T1 sequence (Q96RI1 1-486): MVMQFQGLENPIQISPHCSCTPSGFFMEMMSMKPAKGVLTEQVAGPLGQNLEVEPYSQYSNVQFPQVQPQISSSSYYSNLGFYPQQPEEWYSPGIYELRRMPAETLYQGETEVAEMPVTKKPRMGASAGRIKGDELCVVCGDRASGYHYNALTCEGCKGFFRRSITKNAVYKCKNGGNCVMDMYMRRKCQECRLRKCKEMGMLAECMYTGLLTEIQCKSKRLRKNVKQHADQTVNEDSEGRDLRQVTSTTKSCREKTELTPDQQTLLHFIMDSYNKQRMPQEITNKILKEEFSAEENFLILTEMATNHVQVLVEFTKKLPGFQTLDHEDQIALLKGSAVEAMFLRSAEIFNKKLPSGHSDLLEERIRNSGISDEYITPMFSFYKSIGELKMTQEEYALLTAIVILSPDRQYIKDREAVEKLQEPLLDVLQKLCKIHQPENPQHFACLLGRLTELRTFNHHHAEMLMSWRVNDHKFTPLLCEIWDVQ
# Experiment: Human FXR (NR1H4) reporter assay (Gal4 promoter driven transactivation, luciferase)
# Assay type: cell-based
# Excerpt: Human FXR (NR1H4) Assay Determination of a ligand mediated Gal4 promoter driven transactivation to quantify ligand binding mediated activation of FXR. FXR Reporter Assay kit purchased from Indigo Bioscience (Catalogue number: IB00601) to determine the potency and efficacy of compound developed by Enanta that can induce FXR activation. The principle application of this reporter assay system is to quantify functional activity of human FXR. The assay utilizes non-human mammalian cells, CHO (Chinese hamster ovary) cells engineered to express human NR1H4 protein (referred to as FXR). Reporter cells also incorporate the cDNA encoding beetle luciferase which catalyzes the substrates and yields photon emission. Luminescence intensity of the reaction is quantified using a plate-reading luminometer, Envision. […] Thus, quantifying changes in luciferase expression in the treated reporter cells provides a sensitive surrogate measure of the changes in FXR activity. […] Thirty minutes before intending to quantify FXR activity, remove Detection Substrate and Detection Buffer from the refrigerator and place them in a low-light area so that they may equilibrate to room temperature. […] Set the instrument (Envision) to perform a single 5 second “plate shake” prior to reading the first assay well. Read time may be 0.5 second (500 mSec) per well.
smiles,measurement,setting,value
CC[C@@H]1C2C[C@H](O)CCC2(C)[C@H]2CCC3(C)C([C@H](C)CCC(=O)NC(=N)Nc4ccccc4)CC[C@H]3[C@@H]2[C@@H]1O (some centres unmarked) [Example 1],EC50,,100 to 1000 nM
same,Efficacy (%),"CHO reporter cells expressing human NR1H4, normalized to CDCA set as 100%",248%
